Source: US20170334899A1, “AMINO-SUBSTITUTED ISOTHIAZOLES” (Bayer Pharma Aktiengesellschaft, priority 2014, published 2017)

Experiments:
[1] = system: human cervical tumor cell line HeLa (ATCC CCL-2); assay: SAC-Formation - Nocodazole-Induced Assay; assay type: cell-based; details: Homo sapiens, HeLa, 24 h, HeLa cells, nocodazole 0.1 μg/ml together with test compound, decrease of mitotic cells (phospho-histone H3 Ser10)
Method in brief: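 Loss of phospho-histone H3 Ser10-positive cells, counted against Hoechst-stained nuclei by high-content imaging, marked mitotic breakthrough. Compounds (0.005–20 μM, 0.5% DMSO) were co-dosed with 0.1 μg/ml nocodazole onto HeLa cells for 24 h at 37 °C. Curves were fitted with a four-parameter Hill equation.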

[2] = system: human cervical tumor cell line HeLa (ATCC CCL-2); assay: SAC-Formation - Paclitaxel-Induced Assay; assay type: cell-based; details: Homo sapiens, HeLa, 24 h, HeLa cells, paclitaxel 0.05 μM, test range 0.005 μM-20 μM, read-out: IC50 [mol/l] SAC-Formation - Paclitaxel-Induced Assay
Method in brief: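 Read-out is high-content imaging of anti-phospho-H3 Ser10 (mitosis) and Hoechst 33342 (DNA, cell number), with decreased mitotic fraction marking checkpoint breakthrough. Compounds (0.005–20 μM) and 0.05 μM paclitaxel co-added to overnight-plated HeLa for 24 h at 37° C; four-parameter Hill fit.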

Structure (SMILES)	IC50 [1] [nM]	IC50 [2] [nM]
CCCN1C[C@H](F)[C@H](Oc2ccc(NC(=O)c3c(C)nsc3Nc3cnc(C(F)(F)F)cn3)cn2)C1 [Example 408, N-(6-{[(3R,4S)-4-Fluoro-1-propylpyrrolidin-3-yl]oxy}pyridin-3-yl)-3-methyl-5-{[5-(trifluoromethyl)pyrazin-2-yl]amino}-1,2-thiazole-4-carboxamide]	3.1	47
Cc1nsc(Nc2cnc(C(F)(F)F)cn2)c1C(=O)Nc1ccc(O[C@@H]2CN(CCC(F)(F)F)C[C@@H]2F)nc1 [Example 409, N-(6-{[(3R,4S)-4-Fluoro-1-(3,3,3-trifluoropropyl)pyrrolidin-3-yl]oxy}pyridin-3-yl)-3-methyl-5-{[5-(trifluoromethyl)pyrazin-2-yl]amino}-1,2-thiazole-4-carboxamide]	21	39
Cc1nsc(Nc2cnc(C(F)(F)F)cn2)c1C(=O)Nc1ccc(O[C@@H]2CN(CC(F)(F)F)C[C@@H]2F)nc1 [Example 410, N-(6-{[(3R,4S)-4-Fluoro-1-(2,2,2-trifluoroethyl)pyrrolidin-3-yl]oxy}pyridin-3-yl)-3-methyl-5-{[5-(trifluoromethyl)pyrazin-2-yl]amino}-1,2-thiazole-4-carboxamide]	10	42
Cc1nsc(Nc2cnc(C(F)(F)F)cn2)c1C(=O)Nc1ccc(O[C@@H]2CN(CC(F)F)C[C@@H]2F)nc1 [Example 411, N-(6-{[(3R,4S)-1-(2,2-Difluoroethyl)-4-fluoropyrrolidin-3-yl]oxy}pyridin-3-yl)-3-methyl-5-{[5-(trifluoromethyl)pyrazin-2-yl]amino}-1,2-thiazole-4-carboxamide]	24	39
Cc1nsc(Nc2cnc(C(F)(F)F)cn2)c1C(=O)Nc1ccc(F)c(O[C@@H]2CCN(CC(F)F)C2)c1 [Example 412, N-(3-{[(3R)-1-(2,2-Difluoroethyl)pyrrolidin-3-yl]oxy}-4-fluorophenyl)-3-methyl-5-{[5-(trifluoromethyl)pyrazin-2-yl]amino}-1,2-thiazole-4-carboxamide]	13	11
Cc1nsc(Nc2cnc(C(F)(F)F)cn2)c1C(=O)Nc1ccc(F)c(O[C@@H]2CCN(CC(F)(F)F)C2)c1 [Example 413, N-(4-Fluoro-3-{[(3R)-1-(2,2,2-trifluoroethyl)pyrrolidin-3-yl]oxy}phenyl)-3-methyl-5-{[5-(trifluoromethyl)pyrazin-2-yl]amino}-1,2-thiazole-4-carboxamide]	17	42
Cc1nsc(Nc2cnc(C(F)(F)F)cn2)c1C(=O)Nc1ccc(F)c(O[C@@H]2CCN(CCC(F)(F)F)C2)c1 [Example 414, N-(4-Fluoro-3-{[(3R)-1-(3,3,3-trifluoropropyl)pyrrolidin-3-yl]oxy}phenyl)-3-methyl-5-{[5-(trifluoromethyl)pyrazin-2-yl]amino}-1,2-thiazole-4-carboxamide]	39	44
Cc1nsc(Nc2cnc(C(F)(F)F)cn2)c1C(=O)Nc1ccc(F)c(O[C@H]2CCN(CCC(F)(F)F)C2)c1 [Example 415, N-(4-Fluoro-3-{[(3S)-1-(3,3,3-trifluoropropyl)pyrrolidin-3-yl]oxy}phenyl)-3-methyl-5-{[5-(trifluoromethyl)pyrazin-2-yl]amino}-1,2-thiazole-4-carboxamide]	18	53
Cc1nsc(Nc2cnc(C(F)(F)F)cn2)c1C(=O)Nc1ccc(F)c(O[C@H]2CCN(CC(F)(F)F)C2)c1 [Example 416, N-(4-Fluoro-3-{[(35)-1-(2,2,2-trifluoroethyl)pyrrolidin-3-yl]oxy}phenyl)-3-methyl-5-{[5-(trifluoromethyl)pyrazin-2-yl]amino}-1,2-thiazole-4-carboxamide]	4.2	27
Cc1nsc(Nc2cnc(C(F)(F)F)cn2)c1C(=O)Nc1ccc(F)c(O[C@H]2CCN(CC(F)F)C2)c1 [Example 417, N-(3-{[(3S)-1-(2,2-Difluoroethyl)pyrrolidin-3-yl]oxy}-4-fluorophenyl)-3-methyl-5-{[5-(trifluoromethyl)pyrazin-2-yl]amino}-1,2-thiazole-4-carboxamide]	9.4	32
